The text below walks through data of US8466166B2, “Benzimidazole derivatives as selective acid pump inhibitors” (Raqualia Pharma Inc., priority 2006, dated 2013).

The target in this test is T1, porcine gastric H+/K+-ATPase (Sus scrofa, UniProt P19156).
T1 construct: The gastric vesicles were collected from interface on 0.25 M sucrose layer containing 7% Ficoll; from tissue; host or cells: mucous membrane of fresh porcine stomachs (gastric vesicles)
T1 sequence (P19156 2-1034 limits assumed): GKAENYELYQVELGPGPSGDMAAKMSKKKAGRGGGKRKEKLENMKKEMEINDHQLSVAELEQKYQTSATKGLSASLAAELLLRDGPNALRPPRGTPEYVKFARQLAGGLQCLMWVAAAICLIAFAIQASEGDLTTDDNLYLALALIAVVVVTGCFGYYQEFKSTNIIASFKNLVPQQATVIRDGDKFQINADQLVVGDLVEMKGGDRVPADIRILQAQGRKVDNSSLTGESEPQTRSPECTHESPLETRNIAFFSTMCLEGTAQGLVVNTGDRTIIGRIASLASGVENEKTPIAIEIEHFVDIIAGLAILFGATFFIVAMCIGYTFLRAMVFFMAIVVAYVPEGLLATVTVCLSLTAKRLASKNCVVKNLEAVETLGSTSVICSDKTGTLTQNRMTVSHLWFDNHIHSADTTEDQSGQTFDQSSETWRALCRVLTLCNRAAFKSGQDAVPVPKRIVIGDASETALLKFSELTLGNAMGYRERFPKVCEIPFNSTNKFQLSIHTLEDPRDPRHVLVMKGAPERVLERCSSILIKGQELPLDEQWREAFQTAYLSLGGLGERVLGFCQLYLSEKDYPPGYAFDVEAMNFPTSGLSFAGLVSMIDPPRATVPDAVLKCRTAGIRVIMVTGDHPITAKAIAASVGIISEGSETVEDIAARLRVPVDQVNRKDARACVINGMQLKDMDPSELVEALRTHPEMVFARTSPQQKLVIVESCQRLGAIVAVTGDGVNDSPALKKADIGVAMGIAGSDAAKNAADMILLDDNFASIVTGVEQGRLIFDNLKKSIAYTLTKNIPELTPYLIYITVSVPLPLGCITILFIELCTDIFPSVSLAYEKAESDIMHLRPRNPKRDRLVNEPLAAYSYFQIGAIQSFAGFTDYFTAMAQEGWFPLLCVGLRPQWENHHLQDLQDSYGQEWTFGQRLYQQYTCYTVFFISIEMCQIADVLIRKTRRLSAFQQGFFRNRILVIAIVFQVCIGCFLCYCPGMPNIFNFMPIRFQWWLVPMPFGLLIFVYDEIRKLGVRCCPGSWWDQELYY
T1 sequence (P18434 whole entry partner): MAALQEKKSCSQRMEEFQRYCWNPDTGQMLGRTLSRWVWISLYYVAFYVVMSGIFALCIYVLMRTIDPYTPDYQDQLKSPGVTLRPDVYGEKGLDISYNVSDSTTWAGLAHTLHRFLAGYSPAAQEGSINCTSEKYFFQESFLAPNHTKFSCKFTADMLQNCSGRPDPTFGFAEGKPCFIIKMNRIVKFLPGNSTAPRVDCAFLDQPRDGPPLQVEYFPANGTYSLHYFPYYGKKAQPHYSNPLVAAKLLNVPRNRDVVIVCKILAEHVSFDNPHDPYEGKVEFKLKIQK
The experiment in a line: Ion-leaky porcine gastric H+/K+-ATPase inhibition. Format: biochemical. The following applies: ion-leaky lyophilized porcine gastric vesicles, 5 mM KCl, pH 6.4, 37° C., 30 minutes; read-out: IC50 values of the inhibitory activity. How it is done:
The porcine gastric vesicles for Porcine gastric H^+/K^+-ATPase inhibition assays were prepared from mucous membrane in fresh porcine stomachs by homogenization with a tight-fitted polytetrafluoroethylene (Teflone®) homogenizer in 0.25 M sucrose at 4° C. The crude pellet was removed with centrifugation at 20,000 g for 30 min. Then supernatant was centrifuged at 100,000 g for 30 min. The resulting pellet was re-suspended in 0.25 M sucrose, and then subjected to density gradient centrifugation at 132,000 g for 90 min. The gastric vesicles were collected from interface on 0.25 M sucrose layer containing 7% Ficoll™ PM400 (Amersham Biosciences). This procedure was performed in a cold room.
Ion-leaky porcine gastric H^+/K^+-ATPase inhibition was measured according to the modified method described in Biochemical Pharmacology, 1988, 37, 2231-2236.
The isolated vesicles were lyophilized, and then kept in deep-freezer until use. For enzyme assay, lyophilized vesicles were reconstituted with 3 mM MgSO4 containing 40 mM Bis-tris (pH 6.4 at 37° C.).
Enzyme reaction was performed incubating 5 mM KCl, 3 mM Na2ATP, 3 mM MgSO4 and 1.0 μg of reconstituted vesicles for 30 minutes at 37° C. in a final 60 μl of reaction mixture (40 mM Bis-tris, pH 6.4) with or without the test compound. Enzyme reaction was stopped by adding 10% sodium dodecyl sulphate (SDS). Released inorganic phosphate from ATP was detected by incubation with mixture of 1 part of 35 mM ammonium molybdate tetrahydrate in 15 mM Zinc acetate hydrate and 4 parts of 10% ascorbic acid (pH 5.0), resulting in phosphomolybdate, which has optical density at 750 nm.
For `COCCn1c(C)nc2cc(C(=O)N(C)C)c3c(c21)OC(c1ccccc1)CC3` (racemic) [Example 1, 1-(2-Methoxyethyl)-N,N,2-trimethyl-8-phenyl-1,6,7,8-tetrahydrochromeno[7,8-d]imidazole-5-carboxamide], the IC50 was 98 nM.

On to `COCCn1c(C)nc2cc(C(=O)N(C)C)c3c(c21)OC(c1ccc(F)cc1)CC3` (racemic) [Example 5, 8-(4-Fluorophenyl)-1-(2-methoxyethyl)-N,N,2-trimethyl-1,6,7,8-tetrahydrochromeno[7,8-d]imidazole-5-carboxamide], for which the IC50 was found to be 88 nM.

With `COCCn1c(C)nc2cc(C(=O)N(C)CCO)c3c(c21)OC(c1ccc(F)cc1F)CC3` (racemic) [Example 11, 8-(2,4-Difluorophenyl)-N-(2-hydroxyethyl)-1-(2-methoxyethyl)-N,2-dimethyl-1,6,7,8-tetrahydrochromeno[7,8-d]imidazole-5-carboxamide], the IC50 is 210 nM.

As to `COCCn1c(C)nc2cc(C(=O)N3CCC3)c3c(c21)OC(c1ccccc1)CC3` (racemic) [Example 15, 5-(Azetidin-1-ylcarbonyl)-1-(2-methoxyethyl)-2-methyl-8-phenyl-1,6,7,8-tetrahydrochromeno[7,8-d]imidazole], the half-inhibitory concentration (IC50) was 200 nM.

For the molecule `COCCn1c(C)nc2cc(C(=O)N(C)C)c3c(c21)OC(c1ccccc1)CC3` (single isomer, unassigned; (+)) [Example 2, (+)-1-(2-Methoxyethyl)-N,N,2-trimethyl-8-phenyl-1,6,7,8-tetrahydrochromeno[7,8-d]imidazole-5-carboxamide], the IC50 was 520 nM.

For `COCCn1c(C)nc2cc(C(=O)N(C)C)c3c(c21)OC(c1ccc(F)cc1)CC3` (single isomer, unassigned; (+)) [Example 6, (+)-8-(4-Fluorophenyl)-1-(2-methoxyethyl)-N,N,2-trimethyl-1,6,7,8-tetrahydrochromeno[7,8-d]imidazole-5-carboxamide], the IC50 was found to be 230 nM.

Regarding `COCCn1c(C)nc2cc(C(=O)N(C)CCO)c3c(c21)OC(c1ccc(F)cc1F)CC3` (single isomer, unassigned; (+)) [Example 13, (+)-8-(2,4-Difluorophenyl)-N-(2-hydroxyethyl)-1-(2-methoxyethyl)-N,2-dimethyl-1,6,7,8-tetrahydrochromeno[7,8-d]imidazole-5-carboxamide], the IC50 amounted to 340 nM.

Turning to `COCCn1c(C)nc2cc(C(=O)N3CCC3)c3c(c21)OC(c1ccccc1)CC3` (single isomer, unassigned; (+)) [Example 17, (+)-5-(Azetidin-1-ylcarbonyl)-1-(2-methoxyethyl)-2-methyl-8-phenyl-1,6,7,8-tetrahydrochromeno[7,8-d]imidazole], the IC50 is 1000 nM.

On to `COCCn1c(C)nc2cc(C(=O)N(C)C)c3c(c21)OC(c1ccccc1)CC3` (single isomer, unassigned; (-)) [Example 3, (−)-1-(2-Methoxyethyl)-N,N,2-trimethyl-8-phenyl-1,6,7,8-tetrahydrochromeno[7,8-d]imidazole-5-carboxamide], for which the IC50 amounted to 68 nM.

As for `COCCn1c(C)nc2cc(C(=O)N(C)C)c3c(c21)OC(c1ccc(F)cc1)CC3` (single isomer, unassigned; (-)) [Example 7, (−)-8-(4-Fluorophenyl)-1-(2-methoxyethyl)-N,N,2-trimethyl-1,6,7,8-tetrahydrochromeno[7,8-d]imidazole-5-carboxamide], the 50% inhibitory concentration (IC50) was 38 nM.

Regarding `COCCn1c(C)nc2cc(C(=O)N(C)CCO)c3c(c21)OC(c1ccc(F)cc1F)CC3` (single isomer, unassigned; (-)) [Example 12, (−)-8-(2,4-Difluorophenyl)-N-(2-hydroxyethyl)-1-(2-methoxyethyl)-N,2-dimethyl-1,6,7,8-tetrahydrochromeno[7,8-d]imidazole-5-carboxamide], the IC50 amounted to 90 nM.

`COCCn1c(C)nc2cc(C(=O)N3CCC3)c3c(c21)OC(c1ccccc1)CC3` (single isomer, unassigned; (-)) [Example 16, (−)-5-(Azetidin-1-ylcarbonyl)-1-(2-methoxyethyl)-2-methyl-8-phenyl-1,6,7,8-tetrahydrochromeno[7,8-d]imidazole]: the IC50 is 74 nM.

Turning to `COCCn1c(C)nc2cc(C(=O)N(C)CCO)c3c(c21)OC(c1ccccc1)CC3` (centres unmarked) [Example 4, N-(2-Hydroxyethyl)-1-(2-methoxyethyl)-N,2-dimethyl-8-phenyl-1,6,7,8-tetrahydrochromeno[7,8-d]imidazole-5-carboxamide], the IC50 is 190 nM.

In the case of `Cc1nc2cc(C(=O)N(C)C)c3c(c2n1CCCO)OC(c1ccc(F)cc1)CC3` (centres unmarked) [Example 8, 8-(4-Fluorophenyl)-1-(3-hydroxypropyl)-N,N,2-trimethyl-1,6,7,8-tetrahydrochromeno[7,8-d]imidazole-5-carboxamide], the IC50 was determined as 340 nM.

With `Cc1nc2cc(C(=O)N(C)C)c3c(c2n1Cc1ccon1)OC(c1ccc(F)cc1)CC3` (centres unmarked) [Example 9, 8-(4-Fluorophenyl)-1-(isoxazol-3-ylmethyl)-N,N,2-trimethyl-1,6,7,8-tetrahydrochromeno[7,8-d]imidazole-5-carboxamide], the IC50 came out at 350 nM.

On to `[2H]C([2H])([2H])N(C(=O)c1cc2nc(C)n(CCOC)c2c2c1CCC(c1ccccc1)O2)C([2H])([2H])[2H]` (centres unmarked) [Example 10, N,N-Di[^2H3]methyl-1-(2-methoxyethyl)-2-methyl-8-phenyl-1,6,7,8-tetrahydrochromeno[7,8-d]imidazole-5-carboxamide], for which the IC50 came to 100 nM.

Take `COCCn1c(C)nc2cc(C(=O)N3CC(F)C3)c3c(c21)OC(c1ccccc1)CC3` (centres unmarked) [Example 14, 5-[(3-Fluoroazetidin-1-yl)carbonyl]-1-(2-methoxyethyl)-2-methyl-8-phenyl-1,6,7,8-tetrahydrochromeno[7,8-d]imidazole]: the IC50 was determined as 270 nM.

What is called IC50 is the concentration that inhibits the measured activity by half.
